The values below come from patent publication US7026466B1, “Serotonin-gated anion channel” (Massachusetts Institute of Technology, priority 1999, dated 2006).

Like-named read-outs stand apart in the source and are kept apart here.

One assay addresses MOD-1 channel (Caenorhabditis elegans, UniProt Q9GQ00). Put plainly: Voltage clamp of MOD-1 heterologously expressed in Xenopus oocytes or HEK cells. It is filed as cell-based, C. elegans.
The target of assay [1] is T1, 5-HT3a channel (Homo sapiens, UniProt P46098).
T1 sequence (P46098 24-478): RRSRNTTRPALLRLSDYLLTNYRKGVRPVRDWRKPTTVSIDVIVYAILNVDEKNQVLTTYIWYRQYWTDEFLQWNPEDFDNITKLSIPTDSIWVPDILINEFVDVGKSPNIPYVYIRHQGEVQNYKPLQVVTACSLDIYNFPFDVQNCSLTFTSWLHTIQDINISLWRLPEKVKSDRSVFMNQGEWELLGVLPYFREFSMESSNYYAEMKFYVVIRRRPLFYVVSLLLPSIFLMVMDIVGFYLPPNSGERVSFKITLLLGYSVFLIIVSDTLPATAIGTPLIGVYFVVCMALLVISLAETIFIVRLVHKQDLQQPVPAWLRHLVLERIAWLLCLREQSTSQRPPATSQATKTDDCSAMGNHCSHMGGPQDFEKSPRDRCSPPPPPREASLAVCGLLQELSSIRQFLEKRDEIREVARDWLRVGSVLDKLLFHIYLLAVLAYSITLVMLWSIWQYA

Assay [2] concerns MOD-1-like serotonin-activated current. As to the kind of experiment: Voltage clamp of Xenopus oocytes injected with rat brain RNA (MOD-1-like response). It is filed as cell-based. The note with it: −70 mV, BAPTA-AM 200 μM. How it is done:
A method to identify a mammalian serotonin-gated chloride channel was carried out essentially as described above. Oocytes were injected with rat cortex RNA. […] The oocytes were then screened under a voltage clamp, in a buffer containing 96 mM NaCl, 2 mM KCl, 0.3 mM CaCl2, 1 mM MgCl2, and 5 mM HEPES (pH 7.5), and with 100 mM Tris added.
In additional studies, oocytes were injected with poly(A)+ RNA from rat cortex, striatum, or thalamus, as described above. The oocytes were bathed in 200 μM BAPTA-AM for 2 hours, and were then screened under a voltage clamp, in a bath solution containing 2 mM Co^2+ to block 5-HT3a responses. […] FIG. 12 is a representative time trace of a MOD-1-like response from an oocytes injected with rat cortex RNA. These MOD-1-like currents were not detected in oocytes injected with rat RNA from spinal cord, heart, lung, or testes.

In assay [3] the target is T1, 5-HT3a channel. The note with it: read-out: IC 50, competitive antagonist of the 5-HT3a channel; cited from earlier work.
Another assay relates to C. elegans. Put plainly: Enhanced slowing response (locomotion) of food-deprived C. elegans on a bacterial lawn. The class given is in vivo.
The mark [4] stands for this setting: pretreatment of wild-type C. elegans, food-deprived.

Chain of MOD-1 channel (Q9GQ00 whole entry, looked up): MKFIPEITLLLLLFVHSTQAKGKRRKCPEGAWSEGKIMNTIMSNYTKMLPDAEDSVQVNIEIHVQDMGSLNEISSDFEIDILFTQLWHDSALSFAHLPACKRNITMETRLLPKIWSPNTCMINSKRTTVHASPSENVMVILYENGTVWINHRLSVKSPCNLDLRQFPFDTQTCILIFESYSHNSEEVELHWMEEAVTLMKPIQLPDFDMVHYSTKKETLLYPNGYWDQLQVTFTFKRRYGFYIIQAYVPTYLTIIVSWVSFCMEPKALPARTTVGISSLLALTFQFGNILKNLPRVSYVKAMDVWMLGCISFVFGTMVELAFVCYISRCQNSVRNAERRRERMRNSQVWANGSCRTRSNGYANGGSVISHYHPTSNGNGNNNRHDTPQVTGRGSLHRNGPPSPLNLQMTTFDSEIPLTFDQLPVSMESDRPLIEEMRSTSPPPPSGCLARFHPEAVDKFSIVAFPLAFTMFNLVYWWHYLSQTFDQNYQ

`NCCCC(=O)O` [GABA]: the “response from the MOD-1 channel” value on MOD-1 channel (application of 1 mM agonist) is given as “little or no response”.
`NCCc1c[nH]c2ccc(O)cc12` [serotonin]: the current elicited result on MOD-1 channel (100 nM, holding potential −70 mV) is reported as “large inward currents”. In addition, the “concentration of agonist at which serotonin-gated currents are detectable” value on MOD-1 channel (MOD-1 receptors, HEK cell and Xenopus oocyte expression systems) is 10 to 50 nM; on 5-HT3a channel [1] (5-HT3 receptors, HEK cell and Xenopus oocyte expression systems) it was > 10 µM. The “response of 5-HT3a channels” value is listed as “no response is detectable” on 5-HT3a channel [1] (1 μM serotonin) and “robust current” on 5-HT3a channel [1] (10 μM serotonin). The “oocytes with inward currents” value is listed as “about 10%” in assay [2] (rat cortex RNA, 1 μM serotonin for 1 minute, 100 mM Tris) and “approximately 33%” in assay [2] (rat cortex, striatum or thalamus poly(A)+ RNA, 1 μM serotonin, 2 mM Co2+).
Turning to `NCC(=O)O` [glycine], the “response from the MOD-1 channel” value at MOD-1 channel was “little or no response”.
Turning to σ-conotoxin GVIIIA, the IC50 on 5-HT3a channel [3] is ~0.05 µM.
For `CC(=O)OCOC(=O)CN(CC(=O)OCOC(C)=O)c1ccccc1OCCOc1ccccc1N(CC(=O)OCOC(C)=O)CC(=O)OCOC(C)=O` [BAPTA-AM], the “effect on the function of MOD-1” value at MOD-1 channel (approximately 200 μM in the bath) was “does not affect the function of MOD-1”.
For `CN1CCN2c3ccccc3Cc3ccccc3C2C1` (centres unmarked) [mianserin], the “effect on enhanced slowing response” value is “did not further affect the defective enhanced slowing response” with C. elegans (pre-treatment of mod-1 mutants) and “prevents food-deprived animals from exhibiting the wild-type enhanced slowing response” with C. elegans (setting [4]).
By Ki is commonly meant the equilibrium dissociation constant of an inhibitor or competing ligand from its target. With `CSc1ccc2c(c1)C(N1CCN(C)CC1)Cc1ccccc1S2` (centres unmarked) [methiothepin], the Ki on MOD-1 channel (MOD-1 in oocytes, read-out: approximate Ki, inhibition of the MOD-1 channel) is ~32 µM. The “effect on enhanced slowing response” value in the assay on C. elegans (pre-treatment of mod-1 mutants) was “did not further affect the defective enhanced slowing response”; in the assay with C. elegans (setting [4]), “prevents food-deprived animals from exhibiting the wild-type enhanced slowing response”.
Regarding `NC(CO)(CO)CO` [Tris], the “block of the 5-HT3 cation channel” value on 5-HT3a channel [1] (100 mM added to buffer) is “completely blocks”.
